In the assay the target is T1, IspH (LytB), E-4-hydroxy-3-methyl-but-2-enyl diphosphate reductase (Aquifex aeolicus, UniProt O67625).
T1 construct: inferred from Ni-NTA purification with imidazole elution; made in house; host or cells: E. coli BL-21(DE3)
The assay can be described thus: biochemical. Further details: species or system A. aeolicus. How it is done:
A. aeolicus IspH Protein Purification. BL-21(DE3) cells expressing IspH from A. aeolicus were grown in LB media supplemented with […] ampicillin at 37° C. until the OD600 reached 0.6. Cells were then induced with 200 μg/L anhydrotetracycline and then grown at 20° C. for 15 hours. Cells were harvested by centrifugation (9000 rpm, 8 min, 4° C.) and kept at −80° C. until use. Cell pellets were resuspended and lysed in B-PER (Thermo Scientific, Rockford, Ill.) protein extraction reagent for 1 hour at 4° C. and then centrifuged at […] at 4° C. for 15 minutes. The supernatant was applied to a Ni-NTA column equilibrated with 5 mM imidazole in pH 8.0 buffer containing 50 mM Tris HCl and 150 mM NaCl. After washing with 20 mM imidazole, protein was eluted with 100 mM imidazole. Fractions were collected and dialyzed in pH 8.0 buffer containing 50 mM Tris HCl, 150 mM NaCl, 5% glycerol, and 1 mM DTT, four times. The purified protein was flash-frozen in liquid nitrogen and stored at −80° C. until use.
E. coli IspH Protein Purification. BL21 DE3 (Invitrogen) cells harboring an E. coli IspH construct were grown in LB media at 37° C. until the OD600 reached 0.6. Induction was performed with 200 ng/mL anhydrotetracycline at 20° C. for 15 hours. Cells were harvested by centrifugation at 9000 rpm for 8 min and stored at −80° C. Cell pellets were resuspended and lysed in B-PER protein extraction reagent for about 1 hour at 4° C., and then the lysate was centrifuged at […] for 30 minutes. The supernatant was collected and loaded onto an IBA Strep-tag column equilibrated with buffer W (100 mM Tris.HCl, 150 mM NaCl, pH 8.0). After washing with buffer W, protein was eluted using buffer E (buffer W containing 2.5 mM desthiobiotin). Fractions were collected and dialyzed in pH 8.0 buffer containing 50 mM Tris.HCl, 150 mM NaCl, 5% glycerol, and 1 mM DTT, twice. The purified protein was flashfrozen in liquid nitrogen and stored at −80° C. until use.
Protein Reconstitution. […] Before reconstitution, protein was transferred into a Coy vinyl anaerobic chamber after being degassed on a Schlenk line. The following steps were performed inside the anaerobic chamber with an oxygen level <2 ppm. In a typical reconstitution experiment, 10 mM DTT and ˜0.5 mg of elemental sulfur were added to 3 mL of 0.6 mM protein solution in a pH 8.0 buffer containing 50 mM Tris HCl, 150 mM NaCl, and 5% glycerol. After 1.5 hours under stirring, FeCl3 was slowly added from a 30 mM stock solution to 6 equiv. After 3 hours, an aliquot of the solution was centrifuged and a UV-vis spectrum recorded. If the A410 nm/A280 nm ratio was ≧0.38, the protein was then desalted by passing through a PD10 column. If the ratio was <0.38, more DTT, elemental sulfur, and FeCl3 were added, and the sample was incubated with stirring (for typically ˜2 h) until the 410 nm/280 nm absorption ratio was ˜0.38. The reconstituted protein was then concentrated by ultrafiltration, and the protein concentration was determined by using a Bio-Rad (Hercules, Calif.) protein assay kit.
IspH inhibition assays. Assays were performed anaerobically at room temperature according to the methods of Altincicek et. al. (FEBS Lett. (2002) 532: 437-440) with the following modifications. […]
For enzyme assays, various amounts of the test inhibitor ([…]) were added and the reactions were monitored at 732 nm. […]

Broadly, the Ki is the dissociation constant of the complex between target and ligand, obtained from inhibition or displacement. Usually IC50 stands for the concentration that gives 50% inhibition. A higher IC50 goes with weaker potency in that assay.

Like-named read-outs stand apart in the source and are kept apart here.

T1 sequence (O67625 whole entry): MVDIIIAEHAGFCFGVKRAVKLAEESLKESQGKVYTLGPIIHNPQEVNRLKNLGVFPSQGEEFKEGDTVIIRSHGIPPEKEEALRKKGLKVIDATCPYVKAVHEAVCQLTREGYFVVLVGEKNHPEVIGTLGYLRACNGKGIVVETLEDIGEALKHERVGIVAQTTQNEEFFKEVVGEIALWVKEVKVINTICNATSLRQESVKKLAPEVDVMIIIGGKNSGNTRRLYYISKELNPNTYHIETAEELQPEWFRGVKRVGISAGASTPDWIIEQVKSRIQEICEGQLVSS

`O=C(O)CCCCOP(=O)(O)OP(=O)(O)O` [BPH-988, 5-Pentanoic acid diphosphate] came in with a Ki (Ki) of 51 µM.

Consider `C#CCO` [Propargyl alcohol, reference compound], for which, under “IspH inhibition, read-out: Ki”, the Ki was more than 10000 µM.

On to `C#CC[PH](=O)CP(=O)(O)O` (centres unmarked) [BPH-1084, [[(Prop-2-ynyl)phosphinyl]methyl]phosphonic acid], for which the “activity in IspH inhibition (in words)” value (relative to parent or comparator compounds) is listed as “decreased activity”.

Take `C#CCCOP(=O)(O)OP(=O)(O)O` [BPH-1077, But-3-ynyl diphosphate]: the Ki (IspH inhibition, Ki deduced from IC50 by Cheng-Prusoff equation, read-out: Ki) is approximately 0.2 µM.

In turn, `C#CCOP(=O)(O)OP(=O)(O)O` [BPH-1061, Prop-2-ynyl diphosphate] came in with an IC50 (IspH inhibition, inhibitor incubated 10 minutes before 34 μM HMBPP) of 6.8 µM. This lies in the single-digit micromolar range.
